Results reported in patent US20260364080A1, “PYRAZOLO-PYRIMIDINONE COMPOUNDS FOR USE IN METHODS OF INHIBITING WEE1 A KINASE” (Acrivon Therapeutics, Inc., priority 2023, published 2026).

Assays:
[1] = target: T1, recombinant human Wee1A kinase (Homo sapiens, UniProt P30291); experiment: Wee1A kinase binding assay (LanthaScreen Eu time-resolved FRET); conditions: 30 nM tracer 178, 5 nM Wee1A kinase, 2 nM Eu-labeled antibody; 60 minutes at room temperature; read-out: Wee1A kinase Binding IC50
T1 construct: full length Wee1 kinase was expressed by baculovirus in insect cells; purchased Invitrogen PV3817; host or cells: insect cells (baculovirus)
T1 sequence (P30291 whole entry): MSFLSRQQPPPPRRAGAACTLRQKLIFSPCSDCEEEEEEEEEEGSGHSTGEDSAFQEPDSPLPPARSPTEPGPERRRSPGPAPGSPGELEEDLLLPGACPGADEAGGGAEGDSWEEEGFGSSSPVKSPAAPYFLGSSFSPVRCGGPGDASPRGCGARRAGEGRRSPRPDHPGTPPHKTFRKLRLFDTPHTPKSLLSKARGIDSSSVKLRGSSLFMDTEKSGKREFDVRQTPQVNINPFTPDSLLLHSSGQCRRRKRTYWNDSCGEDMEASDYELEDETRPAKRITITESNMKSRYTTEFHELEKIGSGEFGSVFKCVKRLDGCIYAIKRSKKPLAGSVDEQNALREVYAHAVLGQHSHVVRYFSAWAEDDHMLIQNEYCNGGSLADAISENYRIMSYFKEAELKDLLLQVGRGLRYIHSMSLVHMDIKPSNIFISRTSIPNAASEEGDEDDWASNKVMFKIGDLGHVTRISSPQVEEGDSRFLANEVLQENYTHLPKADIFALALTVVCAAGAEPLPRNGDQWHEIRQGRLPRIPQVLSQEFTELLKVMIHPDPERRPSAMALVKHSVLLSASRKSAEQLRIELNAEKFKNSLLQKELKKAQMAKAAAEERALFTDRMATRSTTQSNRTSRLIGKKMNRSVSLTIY
Outline: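 Full-length, baculovirus-expressed GST-tagged Wee1A (5 nM) was mixed with 2 nM Eu-anti-GST antibody, 30 nM kinase tracer 178 and compound (1% DMSO). Buffer was 50 mM HEPES pH 7.5, 10 mM MgCl2, 1 mM EGTA, 0.01% Brij-35, incubated 60 min at room temperature. TR-FRET 665/615 nm emission ratios from duplicates were curve-fitted.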

[2] = target: T2, Myt1 kinase (recombinant PMYT-1) (Homo sapiens, UniProt Q99640); experiment: Myt1 kinase binding assay (LanthaScreen Eu Kinase Binding Assay); conditions: 3 nM tracer 178, 2.5 nM PMYT-1, 1 nM Eu-labeled antibody; read-out: Myt1 kinase Binding IC50
T2 construct: full length PMYT-1 was expressed by baculovirus in insect cells; purchased Invitrogen A30984; host or cells: insect cells (baculovirus)
T2 sequence (Q99640 1-499): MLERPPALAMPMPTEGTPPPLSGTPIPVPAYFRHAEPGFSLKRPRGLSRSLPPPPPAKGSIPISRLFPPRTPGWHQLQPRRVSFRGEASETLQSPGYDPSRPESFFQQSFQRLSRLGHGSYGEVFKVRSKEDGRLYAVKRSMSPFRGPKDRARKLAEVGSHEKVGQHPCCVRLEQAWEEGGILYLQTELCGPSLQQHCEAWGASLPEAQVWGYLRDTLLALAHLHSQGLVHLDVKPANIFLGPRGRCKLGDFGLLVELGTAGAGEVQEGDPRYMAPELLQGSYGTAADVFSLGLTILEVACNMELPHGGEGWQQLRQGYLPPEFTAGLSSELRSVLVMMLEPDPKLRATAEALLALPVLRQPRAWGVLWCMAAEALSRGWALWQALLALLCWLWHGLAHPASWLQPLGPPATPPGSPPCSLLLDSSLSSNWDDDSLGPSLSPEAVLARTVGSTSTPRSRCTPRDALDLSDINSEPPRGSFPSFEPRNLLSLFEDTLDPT
Outline: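 Compound binding to Myt1 kinase was assessed using the LanthaScreen Eu Kinase Binding Assay. This europium-based binding format was applied to quantify how strongly each compound bound to the Myt1 enzyme, and the binding affinity was reported for each compound as an IC50 value.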

[3] = target: T3, Wee1A kinase (CDK1 Tyr15 phosphorylation in ACHN renal cell carcinoma cells) (Homo sapiens, UniProt P30291); experiment: High-content imaging of pCdk1 Y15, Wee1A kinase target engagement in ACHN cells; assay type: cell-based; conditions: 4 h treatment, nuclear positivity for pCdk1 Y15 vs DMSO control, read-out: CDK1 Tyr15 Phosphorylation EC50
T3 construct: pCDK1 Tyr15 immunofluorescence read-out
T3 sequence (P30291 whole entry): as the sequence (P30291 whole entry) above
Outline: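 EC50 values come from the per-well fraction of cells with nuclear pCdk1 Y15 staining, normalised to DMSO control, by automated immunofluorescence imaging. Cells were ACHN renal carcinoma, treated 4 h with compound at 7–5,000 nM or 0.3–200 nM.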

Compound	IC50 [1] [nM]	IC50 [2] [nM]	EC50 [3] [nM]
C=CCn1c(=O)c2cnc(Nc3cncc(Cl)c3)nc2n1-c1cccc(OC2CCN(C)CC2)n1 [Compound 323, 2-allyl-6-(5-chloro-3-pyridylamino)-1-[6-(1-methyl-4-piperidyloxy)-2-pyridyl]-1,2-dihydro-3H-1,2,5,7-tetraazainden-3-one]	< 10	20 to 100	100 to 500
C=CCn1c(=O)c2cnc(Nc3ccc4nccn4c3)nc2n1-c1cccc(OC2CCNCC2)n1 [Compound 324, 6-(1,3a-diaza-5-indenylamino)-2-allyl-1-[6-(4-piperidyloxy)-2-pyridyl]-1,2-dihydro-3H-1,2,5,7-tetraazainden-3-one]	< 10	20 to 100	> 1000
C=CCn1c(=O)c2cnc(Nc3cncc(F)c3)nc2n1-c1cccc(OC2CCN(C)CC2)n1 [Compound 327, 2-allyl-6-(5-fluoro-3-pyridylamino)-1-[6-(1-methyl-4-piperidyloxy)-2-pyridyl]-1,2-dihydro-3H-1,2,5,7-tetraazainden-3-one]	< 10	20 to 100	100 to 500
C=CCn1c(=O)c2cnc(Nc3ccc4nccn4c3)nc2n1-c1cccc(OC2CCN(C)CC2)n1 [Compound 328, 6-(1,3a-diaza-5-indenylamino)-2-allyl-1-[6-(1-methyl-4-piperidyloxy)-2-pyridyl]-1,2-dihydro-3H-1,2,5,7-tetraazainden-3-one]	< 10	20 to 100	100 to 500
C=CCn1c(=O)c2cnc(Nc3cncc(F)c3)nc2n1-c1cccc(OC2CCNCC2)n1 [Compound 329, 2-allyl-6-(5-fluoro-3-pyridylamino)-1-[6-(4-piperidyloxy)-2-pyridyl]-1,2-dihydro-3H-1,2,5,7-tetraazainden-3-one]	< 10	20 to 100	500 to 1000
C=CCn1c(=O)c2cnc(Nc3cncc(C#N)c3)nc2n1-c1cccc(OC2CCN(C)CC2)n1 [Compound 330, 5-[(1-{6-[(1-methylpiperidin-4-yl)oxy]pyridin-2-yl}-3-oxo-2-(prop-2-en-1-yl)-1H,2H,3H-pyrazolo[3,4-d]pyrimidin-6-yl)amino]pyridine-3-carbonitrile]	< 10	100 to 500	100 to 500
C=CCn1c(=O)c2cnc(Nc3ccc4c(cnn4C)c3)nc2n1-c1cccc(OC2CCNC(C)(C)C2)n1 (stereo not drawn) [Compound 337, 2-allyl-1-(6-((2,2-dimethylpiperidin-4-yl)oxy)pyridin-2-yl)-6-((1-methyl-1H-indazol-5-yl)amino)-1,2-dihydro-3H-pyrazolo[3,4-d]pyrimidin-3-one]	< 10	100 to 500	< 100
CCn1c(=O)c2cnc(Nc3cccc(-c4ccccc4)c3)nc2n1-c1cccc(OC2CCNCC2)n1 [Compound 338, 6-(3-biphenylylamino)-2-ethyl-1-[6-(4-piperidyloxy)-2-pyridyl]-1,2-dihydro-3H-1,2,5,7-tetraazainden-3-one]	< 10	20 to 100	> 1000
CCn1c(=O)c2cnc(Nc3cccc(-c4ccccc4)c3)nc2n1-c1cccc(OC2CCN(C)CC2)n1 [Compound 339, 6-(3-biphenylylamino)-2-ethyl-1-[6-(1-methyl-4-piperidyloxy)-2-pyridyl]-1,2-dihydro-3H-1,2,5,7-tetraazainden-3-one]	< 10	20 to 100	> 1000
CCn1c(=O)c2cnc(Nc3cccc(-c4cnn(C)c4)c3)nc2n1-c1cccc(OC2CCNCC2)n1 [Compound 340, 2-ethyl-6-[m-(1-methyl-4-pyrazolyl)phenylamino]-1-[6-(4-piperidyloxy)-2-pyridyl]-1,2-dihydro-3H-1,2,5,7-tetraazainden-3-one]	< 10	100 to 500	> 1000
C=CCn1c(=O)c2cnc(Nc3cncc(OC)c3)nc2n1-c1cccc(OC2CCN(C)CC2)n1 [Compound 342, 6-[(5-methoxypyridin-3-yl)amino]-1-{6-[(1-methylpiperidin-4-yl)oxy]pyridin-2-yl}-2-(prop-2-en-1-yl)-1H,2H,3H-pyrazolo[3,4-d]pyrimidin-3-one]	< 10	20 to 100	100 to 500
C=CCn1c(=O)c2cnc(Nc3ccc4c(cnn4C)c3)nc2n1-c1cccc(OC2CCN(C)C(C)(C)C2)n1 (stereo not drawn) [Compound 343, 2-allyl-6-((1-methyl-1H-indazol-5-yl)amino)-1-(6-((1,2,2-trimethylpiperidin-4-yl)oxy)pyridin-2-yl)-1,2-dihydro-3H-pyrazolo[3,4-d]pyrimidin-3-one]	< 10	100 to 500	100 to 500
C=CCn1c(=O)c2cnc(Nc3ccc4[nH]nc(C)c4c3)nc2n1-c1cccc(OC2CCNCC2)n1 [Compound 345, 2-allyl-6-((3-methyl-1H-indazol-5-yl)amino)-1-(6-(piperidin-4-yloxy)pyridin-2-yl)-1,2-dihydro-3H-pyrazolo[3,4-d]pyrimidin-3-one]	< 10	20 to 100	500 to 1000
C=CCn1c(=O)c2cnc(Nc3ccc4c(c3)c(C)nn4C)nc2n1-c1cccc(OC2CCNCC2)n1 [Compound 347, 2-allyl-6-((1,3-dimethyl-1H-indazol-5-yl)amino)-1-(6-(piperidin-4-yloxy)pyridin-2-yl)-1,2-dihydro-3H-pyrazolo[3,4-d]pyrimidin-3-one]	< 10	20 to 100	< 100
C=CCn1c(=O)c2cnc(Nc3ccc(F)cc3)nc2n1-c1ccnc(OC2CCN(C)CC2)n1 [Compound 348, 2-allyl-6-((4-fluorophenyl)amino)-1-(2-((1-methylpiperidin-4-yl)oxy)pyrimidin-4-yl)-1,2-dihydro-3H-pyrazolo[3,4-d]pyrimidin-3-one]	< 10	20 to 100	< 100
C=CCn1c(=O)c2cnc(Nc3ccc4c(cnn4C)c3)nc2n1-c1ccnc(OC2CCNCC2)n1 [Compound 350, 2-allyl-6-((1-methyl-1H-indazol-5-yl)amino)-1-(2-(piperidin-4-yloxy)pyrimidin-4-yl)-1,2-dihydro-3H-pyrazolo[3,4-d]pyrimidin-3-one]	< 10	100 to 500	100 to 500
CCn1c(=O)c2cnc(Nc3cccc(-c4cccnc4)c3)nc2n1-c1cccc(OC2CCN(C)CC2)n1 [Compound 352, 2-ethyl-1-[6-(1-methyl-4-piperidyloxy)-2-pyridyl]-6-[m-(3-pyridyl)phenylamino]-1,2-dihydro-3H-1,2,5,7-tetraazainden-3-one]	< 10	20 to 100	< 100
CCn1c(=O)c2cnc(Nc3ccc4c(ccn4C)c3)nc2n1-c1cccc(OC2CCNCC2)n1 [Compound 353, 2-ethyl-6-((1-methyl-1H-indol-5-yl)amino)-1-(6-(piperidin-4-yloxy)pyridin-2-yl)-1,2-dihydro-3H-pyrazolo[3,4-d]pyrimidin-3-one]	< 10	20 to 100	< 100
C=CCn1c(=O)c2cnc(Nc3ccc4c(cnn4CC(C)C)c3)nc2n1-c1cccc(OC2CCNCC2)n1 [Compound 356, 2-allyl-6-((1-isobutyl-1H-indazol-5-yl)amino)-1-(6-(piperidin-4-yloxy)pyridin-2-yl)-1,2-dihydro-3H-pyrazolo[3,4-d]pyrimidin-3-one]	< 10	< 20	< 100
CCn1c(=S)c2cnc(Nc3ccc4c(cnn4C)c3)nc2n1-c1cccc(OC2CCN(C)CC2)n1 [Compound 362, 2-ethyl-6-[(1-methyl-1H-indazol-5-yl)amino]-1-{6-[(1-methylpiperidin-4-yl)oxy]pyridin-2-yl}-1H,2H,3H-pyrazolo[3,4-d]pyrimidine-3-thione]	< 10	100 to 500	100 to 500
C=CCn1c(=O)c2cnc(Nc3cccc(-n4cccn4)c3)nc2n1-c1cccc(OC2CCNCC2)n1 [Compound 363, 2-allyl-1-[6-(4-piperidyloxy)-2-pyridyl]-6-[m-(1-pyrazolyl)phenylamino]-1,2-dihydro-3H-1,2,5,7-tetraazainden-3-one]	< 10	20 to 100	100 to 500
